The values below come from PubChem BioAssay AID652047 (Broad Institute, 2013).

“And” between values parts separate entries of the source, which are not always exact repeats. Equal values may be shown once.

The test system of the assay is P. falciparum 3D7 in RBCs, SYBR Green DNA fluorescence. The assay is described as follows: antimalarial activity against intraerythrocytic 3D7 parasites – 3D7 strain, red blood cells, SYBR Green, cherry-picked, dose response (AID 652047).

As to `O=C(Nc1nnc(-c2ccccc2)o1)c1ccc(Cl)cc1`, the AC35 was 12.4 µM.

Regarding `O=[N+]([O-])c1cc(C(F)(F)F)ccc1NCCc1c[nH]c2ccc(O)cc12`, the AC35 is 28.3 µM.

As to `O=P(Nc1cccnc1)(Oc1ccccc1Cl)Oc1ccccc1Cl`, the AC35 is 40.7 µM.

Regarding `C=C1C(=O)C23CCC4C(C)(C(=O)OC)CCCC4(C)C2CCC1(O)C3` (centres undefined), the AC35 was 1.99 µM.

For the compound `Cc1cccc(Oc2nc(-c3ccccn3)nc3ccccc23)c1`, the AC35 was 3.89 µM.

Turning to `COc1cc([N+](=O)[O-])cc(/C=N/NC(=O)c2cncc(Br)c2)c1O`, the AC35 is 11.7 µM.

With `C=C(C)COc1ccc(-c2[nH]ncc2-c2ccc(Br)cc2)c(O)c1`, the AC35 was 3.55 µM.

`O=C(CCCSc1ccccc1)Nc1nc(-c2ccccn2)cs1`: the AC35 was 6.69 µM.

Regarding `Oc1ccc(N=Nc2ccc3c(c2)OCCO3)c2cccnc12`, the AC35 was 0.706 µM.

For `[O-][n+]1cccc2c(Br)cc(Br)c(O)c21`, the AC35 was 7.13 µM.

As for `CCc1ccc(CN(C)C(=O)c2cc(COc3cccc(C(F)(F)F)c3)on2)nc1`, the AC35 was 24.6 µM.

On to `Cc1ccc(O)c(-c2cc(-c3ccccc3C)[nH]n2)c1`, for which the AC35 was 10.8 µM.

For the compound `Cc1cc(-c2ccccc2)n(-c2cc(N/N=C/c3ccccc3O)ncn2)n1`, the AC35 is 3.99 µM.

On to `O=C(c1ccc(-c2ccccc2)cc1)C1CCCN(C(=O)c2cncs2)C1` (centres undefined), for which the AC35 was 9.45 µM.

Regarding `O=C(NOC(=O)c1ccccc1)c1ccccc1`, the AC35 is 20.9 µM.

In the case of `Oc1cccc2ccc(Nc3ccccn3)nc12`, the AC35 is 0.182 µM.

`O=C(NCc1ccncc1)c1ccccc1Nc1ccc(SC(F)F)cc1`: the AC35 was 21.1 µM.

As for `COC(=O)C1=C(C)NC(C)=C(C(=O)OCC(C)C)C1c1ccccc1[N+](=O)[O-]` (centres undefined), the AC35 was 4.78 µM.

Take `Cc1ccc(-c2c3c(nc4sc(C(N)=O)c(N)c24)CCCC3)o1`: the AC35 is 42.6 µM.

On to `Clc1ccc(COC(Cn2ccnc2)c2ccc(Cl)cc2Cl)c(Cl)c1` (centres undefined), for which the AC35 was 1.2 µM and 1.52 µM.

For the compound `O=c1c2ccccc2nc(-c2ccc(-c3ccccc3)cc2)n1-c1ccncc1`, the AC35 was 3.6 µM.

`Oc1c(CN2CCCC2)cc(COCc2ccccc2)c2cccnc12`: the AC35 was 13.8 µM.

For `O=C(N/N=C/c1ccc[nH]1)c1sc2ccccc2c1Cl`, the AC35 is 8.77 µM.

Regarding `CC(C)C(=O)NC(c1ccco1)c1ccc2cccnc2c1O` (centres undefined), the AC35 was 2.02 µM.

Take `CC1(C)C2CCC1(C)C(OC(=O)c1ccc(O)cc1)C2` (centres undefined): the AC35 was 12.2 µM.

Consider `CC1(C)C=Cc2c(ccc3c2OC[C@@H](c2ccc(O)cc2O)C3)O1`, for which the AC35 is 17.8 µM.

For the compound `CC(C)(C)C(=O)C(Oc1ccc(Cl)cc1)n1cncn1` (centres undefined), the AC35 is 36.6 µM.

`O=CC1=C(c2ccccc2)Oc2ccccc2O1`: the AC35 was 8.24 µM.

`CCCCCCSc1ccc(-c2nc3ccccn3c2NCCCC)cc1`: the AC35 was 12.2 µM.

Turning to `C=CCn1c(-c2cc(-c3ccc(C)cc3)nc3ccccc23)n[nH]c1=S`, the AC35 is 15.5 µM.

Take `O=C(Nc1ccc(Cl)cc1C(=O)Nc1ccc(Br)cn1)c1ccco1`: the AC35 is 15.1 µM.

Take `CC(=O)C1=C(c2cccc([N+](=O)[O-])c2)N(C(C)=O)n2c(C)nnc2S1`: the AC35 is 0.836 µM.

For `Cc1nc2ccc(C(C(F)(F)F)(C(F)(F)F)C(F)(F)F)cc2[nH]1`, the AC35 is 17.8 µM.

As to `CN1CCN(C(=O)c2cc(COc3ccc(F)cc3Cl)on2)CC1c1ccccc1` (centres undefined), the AC35 is 38.8 µM.

Take `COc1cccc(/C=N/Nc2ncnc(Cl)c2N)c1O`: the AC35 is 0.896 µM.

As to `Cc1ccoc1C(=O)Nc1cccc(Oc2ccccc2)c1`, the AC35 is 10.4 µM.

`CC1=CC(=O)C=C(C)C1=NOS(=O)(=O)c1ccccc1`: the AC35 is 17.4 µM.

As to `C=C(C)COc1ccc(-c2[nH]ncc2-c2ccccc2)c(O)c1`, the AC35 was 2.91 µM.

In the case of `Nc1cc2c3ccccc3ccc2c2ccccc12`, the AC35 is 1.01 µM.

Take `CCOC(=O)c1cc2c(=Cc3ccc(N(C)C)cc3)c3ccccc3n2[n+]1C`: the AC35 is 1.94 µM.

`C=CCOC(Cn1ccnc1)c1ccc(Cl)cc1Cl` (centres undefined): the AC35 was 6.08 µM.

On to `Cc1cccc(Nc2nc(-c3ccc(O)cc3O)cs2)n1`, for which the AC35 was 20.3 µM.

`CCCCC(=O)NC(=S)NNC(=O)CCc1ccccc1`: the AC35 is 20.8 µM.

Take `CCN(CC)C(=O)CSc1ncnc2sc(-c3ccccc3)cc12`: the AC35 is 35.6 µM.

For `CCC(C)Sc1cccc(-c2nc3ccccn3c2NCc2ccccc2)c1` (centres undefined), the AC35 was 16.8 µM.

With `CC(C)(C)C(O)C(Cc1ccccc1Cl)n1cncn1` (centres undefined), the AC35 is 25.7 µM.

On to `CC(NC(=S)NC1CCC(C(C)(C)C)CC1)c1ccccc1` (centres undefined), for which the AC35 was 10.2 µM.

Consider `CC(=O)Oc1ccc(OC(C)=O)c(SCCCCCCl)c1`, for which the AC35 was 4.82 µM.

For the compound `COc1ccc(/C=N/Nc2cc(C)nc(-n3nc(C)cc3C)n2)cc1`, the AC35 was 1.06 µM.

As to `CCCCNc1c(-c2ccc(-c3ccc(OC)cc3)c(OC)c2)nc2ccccn12`, the AC35 was 5.67 µM.

Regarding `COC(=O)c1cccc2c1-c1ccccc1/C2=N/O`, the AC35 is 34.7 µM.

`Oc1c(C(Nc2cccc(C(F)(F)F)c2)c2ccncc2)ccc2cccnc12` (centres undefined): the AC35 is 0.879 µM.

In the case of `O=C(Nc1cc(Oc2ccc(Cl)cc2)cc([N+](=O)[O-])c1)c1ccco1`, the AC35 was 6.1 µM.

As for `O=C(Nc1ccc(Br)c(C(F)(F)F)c1)c1ccccc1`, the AC35 was 20 µM.

As for `c1ccc(CSc2ccc(-c3ccccn3)nn2)nc1`, the AC35 was 19 µM.

Turning to `Cc1ccc(O)c(C2=NNC(c3ccc(Cl)cc3)C2)c1` (centres undefined), the AC35 was 4.31 µM.

As for `Cn1nc(C(F)(F)F)c(C#N)c1N1CCN(c2ccc(F)cc2)CC1`, the AC35 was 41.9 µM.

As to `COc1cnc(-c2ccccn2)nc1Sc1ccccc1`, the AC35 was 4.67 µM.

In the case of `C=CCNC(=S)N1CCC(Cc2ccccc2)CC1`, the AC35 was 43.5 µM.

Regarding `c1ccc(-c2ccc(SCc3cccnc3)nn2)nc1`, the AC35 is 33.1 µM.

On to `CCC(=O)NC(c1ccco1)c1cc(Cl)c2cccnc2c1O` (centres undefined), for which the AC35 is 0.484 µM.

As to `O=C1c2ccccc2-n2c1nc1ccccc1c2=O`, the AC35 is 0.181 µM.

Take `CCCOc1ccc(S(=O)(=O)n2cc(F)c(=O)[nH]c2=O)cc1`: the AC35 was 30.4 µM.

As to `COc1cnc(-c2ccccn2)nc1Oc1ccc(C(C)(C)C)cc1`, the AC35 was 2.05 µM.

`C(=C1c2ccccc2-c2ccccc21)c1ccncc1`: the AC35 was 12.1 µM.

Consider `O=[N+]([O-])c1ccc2c(OCc3nnc(-c4ccccc4Br)o3)ncnc2c1`, for which the AC35 is 25.5 µM.

With `CCC(C)c1ccc(NC(=S)NCCn2cc(Br)cn2)cc1` (centres undefined), the AC35 was 13.9 µM.

With `CCCC(C)Sc1nc2c([nH]1)c(=S)n(C)c(=O)n2C` (centres undefined), the AC35 is 4.74 µM.

As for `COc1ccc(Sc2nc(-c3ccccn3)ncc2OC)cc1`, the AC35 is 1.26 µM.

`CC1=CC(C)(C)N(S(=O)(=O)c2ccc(C)cc2)c2ccc(C)cc21`: the AC35 is 22.3 µM.

Regarding `C[C@@]12CCC3[C@@](CCC4[C@@]3(C)CCC[C@@]4(C)C(=O)NCc3ccccc3)(CC1=O)C2` (some centres undefined), the AC35 is 30.2 µM.

Regarding `Cc1ccc(S(=O)(=O)Nc2ccc(O)c3cccnc23)cc1`, the AC35 is 7.02 µM.

`Cc1ccc(C)c(/C=C/C(=O)c2ccccc(=O)c2O)c1`: the AC35 was 7.91 µM.

As for `O=C(Nc1nnc(SCc2ccc(F)cc2)s1)c1ccccn1`, the AC35 was 2.17 µM.

Turning to `COc1cnc(-c2ccccn2)nc1Sc1ccc(C)cc1`, the AC35 is 1.73 µM.

On to `CC1CCN(c2nc(-c3ccncc3)nc3ccccc23)CC1`, for which the AC35 is 4.32 µM.

Take `O=c1c2ccccc2nc(-c2cccc(Cl)c2)n1O`: the AC35 is 25.4 µM.

As for `Cn1ccc(=Nc2ccc(NC(=O)c3ccc(N=c4ccn(C)c5ccc([N+](=O)[O-])cc45)cc3)cc2)cc1`, the AC35 was 0.0417 µM.

Consider `CCOC(=O)N1C(=O)C2(CCCCC2)N(c2ccccc2Cl)C1=S`, for which the AC35 was 12.8 µM.

Regarding `CCCCNC(=S)N/N=C1\CCCCc2ccccc21`, the AC35 is 18.3 µM.

Regarding `CCCS(=O)(=O)c1c(S(=O)(=O)CCC)c2c(C)cccn2c1C(=O)N/N=C/c1cc(O)cc(O)c1`, the AC35 is 8.14 µM.

Turning to `C=CCc1ccc(O)c(-c2ccc(O)c(CC=C)c2)c1`, the AC35 was 15.8 µM.

As for `COc1ccc(-c2cc(C(=O)N3CCN(c4ccccc4F)CC3)c3ccccc3n2)c(OC)c1`, the AC35 is 9.76 µM.

Regarding `CCCn1nc(C(=O)N2CCN(S(=O)(=O)c3ccc(C)c(C)c3)CC2)c2ccccc2c1=O`, the AC35 was 11.7 µM.

As for `Cc1c(C(=O)O)cccc1-c1ccc(/C=N/Nc2ccc(Br)cc2)o1`, the AC35 was 20.2 µM.

For `O=S(=O)(Nc1ccccc1)c1ccc(Oc2ncc(C(F)(F)F)cc2Cl)cc1`, the AC35 is 28.7 µM.

With `Cc1ccc(Nc2cc(C)nn2-c2nc(C)cc(C)n2)cc1`, the AC35 was 2.38 µM.

For `c1ccc(C(=NNc2nc3ccccc3s2)c2ccccn2)cc1`, the AC35 was 1.5 µM.

Take `CCCCCCCc1ccc(-c2ccc(O)cc2)nc1`: the AC35 was 7.43 µM.

For the compound `CCCCCCCn1c(=O)c(C(=O)OC)c(N)c2ccccc21`, the AC35 was 13.6 µM.

With `CCN1C(=O)C(CC(=O)Nc2ccccc2Cl)N(NC(=O)c2cccc(F)c2)C1=S` (centres undefined), the AC35 was 21.2 µM.

Turning to `O=C1c2cccc(Cl)c2C(=O)c2c1cccc2N1CCCC1`, the AC35 was 22.7 µM.

Turning to `O=C(c1ccccc1)c1coc2c1C(=O)c1ccccc1C2=O`, the AC35 was 3.82 µM.

Regarding `O=C(Nc1nnc(-c2cccs2)o1)c1cccc(Oc2ccccc2)c1`, the AC35 is 23 µM.

Consider `CC(C)(C)n1nc(Cc2cccc3ccccc23)c2c(N)ncnc21`, for which the AC35 was 25.7 µM.

As to `CCCCCCCCCCOC(=O)Cn1c(COc2ccccc2OC)[n+](C)c2ccccc21`, the AC35 is 0.401 µM.

As to `O=c1c(O)c(-c2ccccc2)oc2ccccc12`, the AC35 is 31.1 µM.

As for `CC(C)=CCc1c(O)ccc(C(=O)Cc2ccccc2)c1O`, the AC35 is 16.4 µM.

As for `O=C(O)c1ccccc1NC(c1ccccc1)c1ccc2cccnc2c1O` (centres undefined), the AC35 is 10.8 µM.

Consider `CC/C(=N/NC(=O)c1ccccc1O)c1c(C)[nH]n(-c2ccccc2)c1=O`, for which the AC35 is 34.9 µM.

Turning to `Cc1cccc2sc(NNC(=O)c3ccc(S(=O)(=O)N4CCCC(C)C4)cc3)nc12` (centres undefined), the AC35 is 3.46 µM.

With `O=C(Oc1c(Cl)cc(Cl)c2cccnc12)c1cccs1`, the AC35 was 17.7 µM.

In the case of `O=C(NCCC1=CCCCC1)c1c(O)nc2sccn2c1=O`, the AC35 was 17 µM.

As to `Oc1ccccc1-c1cc(-c2ccc3c(c2)OCCO3)n[nH]1`, the AC35 is 15.2 µM.
